Experimental data: patent US20230092846A1, “COMBINATION FOR THE TREATMENT OF CANCER AND APPLICATION THEREOF” (EVERFRONT BIOTECH INC., priority 2020, published 2023)
Converted amounts (≈) assume the structure as drawn. Like-named read-outs stand apart in the source and are kept apart here.

Key:
[1] = tested on: PANC-1 cells; experiment: MTT cell viability analysis, single agents, PANC-1; type: cell-based, human
Method: (§1) In this example, the effects of the compound of the present invention and different anticancer medicaments on killing cancer cells were studied by MTT (Thiazolyl Blue tetrazolium bromide, 3-[4,5-dimethylthiahiazo-2-yl]-[…] bromide) cell viability analysis.
(§2) Thereafter, each of the aforesaid cell lines was cultured with cell medium containing gemcitabine, cisplatin, 5-fluorouracil, irinotecan, oxaliplatin, paclitaxel, (Z)-n-butylidenephthalide, (E)-n-butylidenephthalide, 2-pentanolybenzoic acid, sodium 2-pentanoylbenzoate, and butylphthalide, for 24 hours, 48 hours and 72 hours, respectively.

[2] = tested on: AsPC-1 cells; experiment: MTT cell viability analysis, single agents, AsPC-1; type: cell-based, human
Method: as §1, §2

[3] = tested on: Mia-PaCa2 cells; experiment: MTT cell viability analysis, single agents, Mia-PaCa2; type: cell-based, human
Method: as §1, §2

[4] = tested on: Panc02 cells; experiment: MTT cell viability analysis, single agents, Panc02; type: cell-based, mouse
Method: as §1, §2

[5] = tested on: HT-29 cell; experiment: MTT cell viability analysis, single agents, HT-29; type: cell-based; conditions: cultured 24, 48 and 72 hours (time of IC50 not given)
Method: as §1
(§3) Thereafter, each of the aforesaid cell lines were cultured with cell medium containing 5-fluorouracil, (Z)-n-butylidenephthalide, and 2-pentanolybenzoic acid for 24 hours, 48 hours and 72 hours.

[6] = tested on: HepG2 cell; experiment: MTT cell viability analysis, single agents, HepG2; type: cell-based; conditions: cultured 24, 48 and 72 hours (time of IC50 not given)
Method: as §1, §3

[7] = tested on: DBTRG-05MG cell; experiment: MTT cell viability analysis, single agents, DBTRG-05MG; type: cell-based; conditions: cultured 24, 48 and 72 hours (time of IC50 not given)
Method: as §1, §3

[8] = tested on: A549 cell; experiment: MTT cell viability analysis, single agents, A549; type: cell-based; conditions: cultured 24, 48 and 72 hours (time of IC50 not given)
Method: as §1, §3

[9] = tested on: PD-1 protein; experiment: Western Blotting of pancreatic tumor tissue, PD-1; type: in vivo, C57BL/6J mouse; conditions: FIG. 6, group regimens
Method: (§4) According to the requirements of Institutional Animal Care and Use Committee (IACUC) of Dong Hwa University, C57BL/6J mice were feed in the experimental animal center of Dong Hwa University until 8 to 10 weeks old. Then, the stably constructed Panc02 cells transfected by Luc-eGFP were in-situ injected into the mice pancreases (1×10^6 cells/0.02 ml/mouse). Thereafter, the tumor sizes of mice pancreases were analyzed through the animal imaging results, and the mice were equally divided into nine group depending on their tumor sizes and treated by the following conditions for three to four weeks:
(§5) After accomplishing the observations of Examples 4-2 to 4-3, the mice in each group were sacrificed and the tissues of pancreatic tumor thereof were collected to extracting proteins. Then, the expressions of CD44 protein, CD44ICD protein, PD-1 protein, PD-L1 protein, p-Akt protein, and Akt protein in the protein sample of each group were detected by Western Blotting. Furthermore, the expression of GAPDH protein serves as an internal control.

[10] = tested on: Panc02 cells pancreatic tumor; experiment: Orthotopic Panc02 pancreatic tumor, tumor size by T2-weighted MRI; type: in vivo, C57BL/6J mouse; conditions: fifteenth day, 14 days of treatment; group regimens; FIG. 3
Method: as §4
(1) “Control (Ctl.)” group (5 mice): untreated, only orally administering vehicle (containing none of the compound of the present invention and other anticancer medicaments) every day. […]
The stably constructed Panc02 cells transfected by Luc-eGFP were in-situ injected into the mice of each group of Example 4-1, and after determining the growth of in-situ pancreatic tumor, the medicament treatments were conducted for 14 days (i.e., the fifteenth day). In this duration, the pancreatic tumors of mice in each group were analyzed and observed by T2-weighted MRI and taken pictures for records. The tumor (a portion circled by a dotted line) sizes of mice of each group in FIG. 2 were analyzed by amide software.

[11] = tested on: Panc02 cells pancreatic tumor; experiment: Survival of mice with orthotopic Panc02 pancreatic cancer; type: in vivo, C57BL/6J mouse; conditions: for Fold (as compared to Ctl. group): survival
Method: as §4
(1) “Control (Ctl.)” group (5 mice): untreated, only orally administering vehicle (containing none of the compound of the present invention and other anticancer medicaments) every day.
(2) “LD” group (5 mice): orally administering a low dose (12.5 mg/kg body weight) of (Z)-n-butylidenephthalide every day.
(3) “HD” group (5 mice): orally administering a high dose (25 mg/kg body weight) of (Z)-n-butylidenephthalide every day.
(4) “Gem” group (5 mice): intraperitoneally injecting 100 mg/kg body weight of gemcitabine (GEM) per three days.
(5) “LD+Gem” group (5 mice): orally administering 12.5 mg/kg body weight of (Z)-n-butylidenephthalide every day, and intraperitoneally injecting 50 mg/kg body weight of gemcitabine (GEM) per three days.
(6) “TS-1” group (5 mice): after orally administering 100 mg/kg body weight of TS-1 every day for five continuous days, stopping the oral administration of TS-1 for two days.
According to the method of Example 4-1, the pancreatic cancer mice were established and the survivals of mice in each group were observed and recorded every day. The results are shown in Table 15 and FIG. 5A to FIG. 5D.

[12] = tested on: PD-L1 protein; experiment: Western Blotting of pancreatic tumor tissue, PD-L1; type: in vivo, C57BL/6J mouse; conditions: FIG. 6, group regimens
Method: as §4, §5

[13] = tested on: CD44ICD protein; experiment: Western Blotting of treated Panc02 cells, CD44ICD; type: cell-based, mouse; conditions: FIG. 1
Method: (§6) The Panc02 cells (pancreatic cancer cell line) were cultured with 37.5 and 75 μg/ml of (Z)-n-butylidenephthalide for 6 hours (a portion of cells were harvested after culturing for 3 hours), respectively. Thereafter, proteins of the cells were extracted, and the expressions of CD44 intracellular domain (CD44ICD) protein and PD-L1 protein in the cancer cells treated with (Z)-n-butylidenephthalide were measured by Western Blotting. Furthermore, the expression of GAPDH protein was measured as an internal control.

[14] = tested on: PD-L1 protein; experiment: Western Blotting of treated Panc02 cells, PD-L1; type: cell-based, mouse; conditions: 37.5 and 75 μg/ml, 3 and 6 hours, FIG. 1
Method: as §6

[15] = MTT, cultured 24, 48 and 72 hours (time of IC50 not given)
[16] = AsPC-1, MTT, cultured 24, 48 and 72 hours (time of IC50 not given)
[17] = Mia-PaCa2, MTT, cultured 24, 48 and 72 hours (time of IC50 not given)
[18] = Homo sapiens, MTT, cultured 24, 48 and 72 hours (time of IC50 not given), read-out: IC50
[19] = Homo sapiens, ASPC1, AsPC-1, MTT, cultured 24, 48 and 72 hours (time of IC50 not given), read-out: IC50
[20] = Homo sapiens, MIA PaCa-2, Mia-PaCa2, MTT, cultured 24, 48 and 72 hours (time of IC50 not given), read-out: IC50
[21] = Mus musculus, MTT, cultured 24, 48 and 72 hours (time of IC50 not given), read-out: IC50
[22] = Gem group: 100 mg/kg intraperitoneally per three days
[23] = HD group: 25 mg/kg orally every day
[24] = LD group: 12.5 mg/kg orally every day

CCC/C=C1/OC(=O)c2ccccc21 [(E)-n-butylidenephthalide]
IC50 ([1]; Homo sapiens): 779 ± 26.9 µg/mL (≈ 4140 µM)
IC50 ([2]; Homo sapiens, ASPC1): 131 ± 43.3 µg/mL (≈ 697 µM)
IC50 ([3]; Homo sapiens, MIA PaCa-2): 629 ± 16.5 µg/mL (≈ 3340 µM)
IC50 ([4]; Mus musculus): 514 ± 9.21 µg/mL (≈ 2730 µM)

N.N.[Cl][Pt][Cl] [cisplatin, Cisplatin]
IC50 [1, 15]: 35.87 ± 1.23 µg/mL
IC50 [2, 16]: 21.56 ± 1.05 µg/mL
IC50 [3, 17]: 32.86 ± 1.08 µg/mL
IC50 [4, 15]: 53.36 ± 1.74 µg/mL

2-pentanolybenzoic acid
IC50 [1, 15]: 980.5 ± 22.64 µg/mL
IC50 [5]: 443.8 ± 0.04 µg/mL
IC50 [2, 16]: 490.2 ± 19.69 µg/mL
IC50 [3, 17]: 693.5 ± 19.57 µg/mL
IC50 [6]: 1141.5 ± 0.01 µg/mL
IC50 [7]: 392.8 ± 0.01 µg/mL
IC50 [4, 15]: 769.9 ± 15.13 µg/mL
IC50 [8]: 795.5 ± 0.02 µg/mL

CCc1c2c(nc3ccc(OC(=O)N4CCC(N5CCCCC5)CC4)cc13)-c1cc3c(c(=O)n1C2)COC(=O)[C@]3(O)CC [irinotecan, Irinotecan]
IC50 [1, 18]: 38.5 ± 1.08 µg/mL (≈ 65.5 µM)
IC50 [2, 19]: 54.4 ± 2.13 µg/mL (≈ 92.7 µM)
IC50 [3, 20]: 21.7 ± 0.82 µg/mL (≈ 36.9 µM)
IC50 [4, 21]: 69.5 ± 1.01 µg/mL (≈ 118 µM)

Nc1ccn([C@@H]2O[C@H](CO)[C@@H](O)C2(F)F)c(=O)n1 [gemcitabine, Gemcitabine]
IC50 [1, 18]: 1.53 ± 0.3 µg/mL (≈ 5.81 µM)
expression of PD-1 protein in pancreatic tumor tissue [9]: more than that of the untreated “Control” group
IC50 [2, 19]: 6.56 ± 0.82 µg/mL (≈ 24.9 µM)
tumor size (T2-weighted MRI) [10]: bigger than that of untreated “Control” group
Average of overall survival [11, 22]: 31.7 ± 1.023 days
Median of overall survival [11, 22]: 30 days
Fold (as compared to Ctl. group) [11, 22]: 1.8
expression of PD-L1 protein in pancreatic tumor tissue [12]: more than that of the untreated “Control” group
IC50 [3, 20]: 0.85 ± 0.36 µg/mL (≈ 3.23 µM)
IC50 [4, 21]: 0.00377 µg/mL (≈ 0.0143 µM)

CCC/C=C1\OC(=O)c2ccccc21 [(Z)-n-butylidenephthalide]
IC50 ([1]; Homo sapiens): 41.2 ± 2.81 µg/mL (≈ 219 µM)
IC50 ([5]; Homo sapiens, read-out: IC50): 52.9 ± 0.01 µg/mL (≈ 281 µM)
IC50 ([2]; Homo sapiens, ASPC1): 83.3 ± 2.56 µg/mL (≈ 443 µM)
expression of CD44ICD protein ([13]; 37.5 and 75 μg/ml, 3 and 6 hours): decreased as the concentration of (Z)-n-butylidenephthalide was increased
expression of CD44ICD protein at 6 hours ([13]; 6 hours): completely inhibited
Average of overall survival [11, 23]: 27.2 ± 0.533 days
Median of overall survival [11, 23]: 27 days
Average of overall survival [11, 24]: 30.6 ± 2.205 days
Median of overall survival [11, 24]: 30 days
survival days compared to Control group and TS-1 group [11, 24]: more than that of “Control” group
Fold (as compared to Ctl. group) [11, 23]: 1.6
Fold (as compared to Ctl. group) [11, 24]: 1.8
IC50 ([3]; Homo sapiens, MIA PaCa-2): 55.9 ± 1.35 µg/mL (≈ 297 µM)
IC50 ([6]; Homo sapiens, read-out: IC50): 81.1 ± 0.02 µg/mL (≈ 431 µM)
IC50 ([7]; Homo sapiens, read-out: IC50): 133 µg/mL (≈ 704 µM)
IC50 ([4]; Mus musculus): 32.9 ± 2.33 µg/mL (≈ 175 µM)
IC50 ([8]; Homo sapiens, read-out: IC50): 63.6 ± 0.06 µg/mL (≈ 338 µM)
expression of PD-L1 protein [14]: decreased as the concentration of (Z)-n-butylidenephthalide was increased

O=c1[nH]cc(F)c(=O)[nH]1 [5-fluorouracil, reference compound]
IC50 [1, 18]: 8.45 ± 0.35 µg/mL (≈ 65 µM)
IC50 ([5]; Homo sapiens, read-out: IC50): 20.8 ± 0.91 µg/mL (≈ 160 µM)
IC50 [2, 19]: 25.4 ± 3.91 µg/mL (≈ 195 µM)
IC50 [3, 20]: 4.9 ± 0.27 µg/mL (≈ 37.7 µM)
IC50 ([6]; Homo sapiens, read-out: IC50): 4.44 ± 0.25 µg/mL (≈ 34.1 µM)
IC50 ([7]; Homo sapiens, read-out: IC50): 55.5 ± 6.1 µg/mL (≈ 426 µM)
IC50 [4, 21]: 0.0673 µg/mL (≈ 0.517 µM)
IC50 ([8]; Homo sapiens, read-out: IC50): 8.55 ± 0.22 µg/mL (≈ 65.7 µM)

CCCCC(=O)c1ccccc1C(=O)[O-].[Na+] [sodium 2-pentanoylbenzoate, Sodium 2-pentanoylbenzoate]
IC50 [1, 18]: 687 ± 27.1 µg/mL
IC50 [2, 19]: 624 ± 49.6 µg/mL
IC50 [3, 20]: 469 ± 18.6 µg/mL
IC50 [4, 21]: 750 ± 28.7 µg/mL

O=C1[O][Pt]2([NH][C@@H]3CCCC[C@H]3[NH]2)[O]C1=O [oxaliplatin, Oxaliplatin]
IC50 [1, 15]: 18.79 ± 1.35 µg/mL
IC50 [2, 16]: 42.60 ± 7.61 µg/mL
IC50 [3, 17]: 21.81 ± 1.60 µg/mL
IC50 [4, 15]: 8.43 ± 0.83 µg/mL

CC(=O)O[C@H]1C(=O)[C@@]2(C)[C@H]([C@H](OC(=O)c3ccccc3)[C@]3(O)C[C@H](OC(=O)[C@H](O)[C@@H](NC(=O)c4ccccc4)c4ccccc4)C(C)=C1C3(C)C)[C@]1(OC(C)=O)CO[C@@H]1C[C@@H]2O [paclitaxel, Paclitaxel]
IC50 [1, 18]: 0.0196 µg/mL (≈ 0.023 µM)
IC50 [2, 19]: 0.058 µg/mL (≈ 0.0679 µM)
IC50 [3, 20]: 0.00458 µg/mL (≈ 0.00536 µM)
IC50 [4, 21]: 0.0124 µg/mL (≈ 0.0146 µM)

CCCCC1OC(=O)c2ccccc21 (centres unmarked) [butylphthalide, Butylphthalide]
IC50 [1, 15]: >200 µg/mL
IC50 [2, 16]: >300 µg/mL
IC50 [3, 17]: 198.9 ± 7.69 µg/mL (≈ 1050 µM)
